Data: patent US20200199501A1, “SOLVENT COMPOSITIONS CONTAINING 1,2,2-TRIFLUORO-1-TRIFLUOROMETHYLCYCLOBUTANE (TFMCB)” (Honeywell International Inc., priority 2018, published 2020)

Assay: Acute inhalation toxicity (OECD Guideline No. 403)
Conditions: in vivo, inhaled, OECD Guideline No. 403 (2009), Method B.2 of Commission Regulation (EC) No. 440/2008
Text: LC50 is a measure of the acute toxicity of a compound. The acute inhalation toxicity of a compound can be assessed using the method described in the OECD Guideline for Testing of Chemicals No. 403 “Acute Inhalation Toxicity” (2009), Method B.2. (Inhalation) of Commission Regulation (EC) No. 440/2008.

## FC(F)(F)C1(F)CCC1(F)F (stereo not shown) [TFMCB, 1,2,2-trifluoro-1-trifluoromethylcyclobutane]
  LC50: > 19.1 µg/mL
